Assay results taken from patent US9029502B2, “Inhibitors of the epidermal growth factor receptor-heat shock protein 90 binding interaction” (priority 2010, dated 2015).
Ends that are not written are not given here. Peptide text beside a SMILES is read from it. * marks the point of attachment. Biotin = O=C1N[C@H]2[C@H](CS[C@H]2CCCCC(=O)*)N1

Tests used:
C57BL/6 mice = experiment: Safety in immune-competent C57BL/6 mice; format: in vivo; conditions: intraperitoneal, 10 and 30 mg/kg; for histological alterations in evaluated organs: 3 days post-injection
Protocol: Mice were dosed by intraperitoneal injection with 10 and 30 mg/kg of Disruptin, and brain, lung, liver, heart, kidneys, spleen, stomach, small intestine, mesenteric lymph nodes, cecum, colon, pancreas, ovaries, bone marrow, and eyes were evaluated 3 days post-injection.

UMSCC1 xenografts [1] = experiment: In vivo tumor growth study, UMSCC1 xenografts; set-up: species or system mice
Protocol: (a) To determine if EGFR level was affected in the UMSCC1 xenograft tumor, mice were injected with either DMSO, specific, or non-specific biotinylated peptide (8 mg/kg) intraperitoneally. Three weeks after the injection, tumors (white arrow) along with some adjacent normal tissue (yellow arrow) were harvested. Immunostaining was performed for EGFR and HSP90. HSP90 levels were not affected by either treatment either in tumor or in the adjacent skin tissue. EGFR expression was reduced in the tumor treated with specific peptide relative to normal adjacent skin cells. (b) The effect on tumor growth was also assessed after treatment with two injections separated by 3 days. Tumor volume was recorded every other day during this period, (c) Time to tumor volume doubling was plotted for each treatment condition using Kaplan-Meier method and (d) Comparisons between any two treatment groups was analyzed by log rank tests.
Mice were handled according to the established procedures of the University of Michigan Laboratory Animals Maintenance Manual. To generate tumor xenografts, 2×10^6 UMSCC1 cells were transplanted into the flanks of athymic nude Foxn1^nu mice (Harlan Laboratories). […]
Tumor volume doubling was determined for each xenograft by identifying the earliest day on which it was at least twice as large as on the first day of treatment. […]

UMSCC1 xenografts [2] = experiment: Peptide internalization assay in UMSCC1 xenografts; format: in vivo; conditions: 8 mg/kg, i.p., nude mice with UMSCC1 xenografts
Protocol: Delivery of the peptide to the UMSCC1 xenografts was assessed after injection of peptides (8 mg/kg, i.p.), 3 days later the tumors were removed, cryosections were immunostained for EGFR, and the internalized biotinylated peptide was visualized by Streptavidin Alexa Fluor […] reagent.
The UMSCC1 xenografts were cryopreserved in OCT (Electron Microscopy Sciences). Five μm sections were cut from tissues prepared on days 1 and 3 after peptide treatment. Sections were fixed in cold methanol for 20 min and then were blocked with 1% Bovine Serum Albumin (BSA). The sections were incubated overnight with anti-EGFR antibody (Santa Cruz). After washing, the sections were incubated with anti-rabbit Alexa Fluor 488 (Molecular Probes) and Streptavidin conjugated Alexa Fluor 594 (Molecular Probes). Coverslips were mounted with one drop of Prolong Gold anti-fade reagent with DAPI (4,6-diamidino-2-phenylindole; Molecular Probes) to visualize the nuclei. Fluorescence images were acquired using a DP70 camera fitted on an Olympus 1X-71 microscope.

UMSCC1 cells = experiment: Clonogenic cell survival assay, UMSCC1; format: cell-based, human
Protocol: (§1) Clonogenic assays were performed using standard techniques.^34 The fraction surviving each treatment was normalized to the survival of the control cells. Peptide cell survival curves were fitted using the equation SF=(C50)^m/[(C50)^m+C^m], where SF is the surviving fraction, C is the peptide concentration, C50 is the concentration of peptide that produces a 50% cell survival and m is the slope of the sigmoid curve.
(§2) We then assessed colonogenic survival in head and neck (UMSCC1, UMSCC10B, UMSCC74B), lung (A549, H1975, H3255), and HeLa cancer cells. Normal human esophageal squamous epithelial (Het1A) and lung fibroblast (MRC5) cell lines along with EGFR negative CHO cells were selected to study selectivity.

UMSCC10B = experiment: Clonogenic cell survival assay, UMSCC10B; format: cell-based, human; conditions: cell permeable peptides, H&N cancer, WT-EGFR
Protocol: as §1, §2

UMSCC74B = experiment: Clonogenic cell survival assay, UMSCC74B; format: cell-based, human; conditions: cell permeable peptides, H&N cancer, WT-EGFR
Protocol: as §1, §2

A549 = experiment: Clonogenic cell survival assay, A549; format: cell-based, human; conditions: cell permeable peptides; A549, lung cancer, WT-EGFR
Protocol: as §1, §2

H1975 = experiment: Clonogenic cell survival assay, H1975; format: cell-based, human; conditions: cell permeable peptides; H1975, lung cancer, T790M-EGFR
Protocol: as §1, §2

H3255 = experiment: Clonogenic cell survival assay, H3255; format: cell-based, human; conditions: cell permeable peptides; H3255, lung cancer, L858R-EGFR
Protocol: as §1, §2

HeLa = experiment: Clonogenic cell survival assay, HeLa; format: cell-based, human; conditions: cell permeable peptides, cervical cancer, WT-EGFR
Protocol: as §1, §2

Het1A = experiment: Clonogenic cell survival assay, Het1A; format: cell-based; conditions: cell permeable peptides, normal human epithelial, WT-EGFR
Protocol: as §1, §2

MRC5 = experiment: Clonogenic cell survival assay, MRC5; format: cell-based; conditions: cell permeable peptides; MRC5, normal human fibroblasts, WT-EGFR
Protocol: as §1, §2

CHO = experiment: Clonogenic cell survival assay, CHO; format: cell-based; conditions: cell permeable peptides, hamster ovarian
Protocol: as §1, §2

HSP90 = target: T1, HSP90 (Homo sapiens, UniProt P07900); experiment: Peptide binding assay (streptavidin pull-down of biotinylated peptide, HSP90 immunoblot); conditions: UMSCC1 cell lysate; 10, 30 and 100 μg/ml
T1 construct: cell lysates from cancer or normal cells were prepared by 3 freeze-thaw cycles; endogenous in cells; host or cells: UMSCC1, H1975, Het1A, MRC5 (A11); UMSCC1 (A13)
Protocol: (a) To determine if the lead peptide interacts directly with tumor HSP90, cell lysates from cancer or normal cells were prepared by 3 freeze-thaw cycles and then incubated with 3 μg/ml of specific or non-specific biotin coupled peptides for 2 hours. The peptide was affinity purified using Streptavidin-agarose beads, and bound HSP90 was detected by immunoblotting for HSP90. […] (b) The effect of the treatment with specific and non-specific peptide on HSP90-EGFR interaction was determined by IP of HSP90 followed by IB with EGFR at 24 hours post treatment. […] The increased levels of HSP70 upon GA treatment indicate inhibition of HSP90 activity. (c) Specificity of the peptide treatment compared to GA was evaluated in tumor and normal cells as described in FIG. 3b, by assessing the levels of EGFR and PARP cleavage (marker of apoptotic cell death) at 72 hours post treatment, (d) cell survival was assessed using colony formation assay.
(a) UMSCC1 cell lysate was incubated with three concentrations of specific or non-specific peptide (10, 30 and 100 μg/ml) followed by immunoblotting with anti-HSP90 antibody. […] (b) The effect of EGFR specific peptide on HSP90's ability to bind with ATP was assessed. […] Bound protein was eluted in SDS-PAGE buffer, and the levels were determined by immunoblot analysis. […]

EGFR-HSP90 interaction = target: T2, EGFR-HSP90 interaction (Homo sapiens, UniProt P07900); experiment: EGFR-HSP90 interaction by immunoprecipitation and immunoblotting; format: cell-based; conditions: 24-hour exposure; cancer cell lines (UMSCC1, H1975); GA 50 nM as positive control
T2 construct: endogenous in cells; host or cells: UMSCC1, H1975, Het1A, MRC5

EGFR = format: in vivo, mice; conditions: UMSCC1 xenograft, 8 mg/kg intraperitoneally
Protocol: Delivery of the peptide to the UMSCC1 xenografts was assessed after injection of peptides (8 mg/kg, i.p.), 3 days later the tumors were removed, cryosections were immunostained for EGFR, and the internalized biotinylated peptide was visualized by Streptavidin Alexa Fluor 562 reagent.

## COC1=C2C[C@@H](C)C[C@H](OC)[C@H](O)[C@@H](C)/C=C(\C)[C@H](OC(N)=O)[C@@H](OC)/C=C\C=C(/C)C(=O)NC(=CC1=O)C2=O [Geldanamycin, reference compound]
C57BL/6 mice
  histological alterations in evaluated organs: histological evidence of toxicity in eye and liver

## CC(C)[C@H](NC(=O)[C@H](Cc1c[nH]cn1)NC(=O)[C@@H]1CCCN1C(=O)[C@H](CC(N)=O)NC(=O)[C@H](CC(=O)O)NC(=O)[C@@H](NC(=O)[C@H](CO)NC(=O)[C@H](CCCNC(=N)N)NC(=O)[C@H](CCCNC(=N)N)NC(=O)[C@H](CCCNC(=N)N)NC(=O)[C@H](CCC(N)=O)NC(=O)[C@H](CCCNC(=N)N)NC(=O)[C@H](CCCNC(=N)N)NC(=O)[C@H](CCCCN)NC(=O)[C@H](CCCCN)NC(=O)[C@H](CCCNC(=N)N)NC(=O)CNC(=O)[C@H](Cc1ccc(O)cc1)NC(=O)CCCC[C@@H]1SC[C@@H]2NC(=O)N[C@@H]21)C(C)C)C(=O)N[C@@H](CS)C(=O)O [Specific Peptide] (Biotin-YGRKKRRQRRRSVDNPHVC-OH; N-terminus and C-terminus assumed)
UMSCC1 xenografts [1]; UMSCC1 xenograft mice
  systemic toxicity: No systemic toxicity
UMSCC1 xenografts [2]
  time post injection peptide remained detectable in xenografts: 72 h

## Biotin-YGRKKRRORRR-NHVPSDVC [Non Specific Peptide]
UMSCC1 cells
  clonogenic survival (surviving fraction): 1.62 ± 0.04
UMSCC10B
  clonogenic survival (surviving fraction): 0.98 ± 0.04
UMSCC74B
  clonogenic survival (surviving fraction): 0.88 ± 0.10
A549
  clonogenic survival (surviving fraction): 0.81 ± 0.09
H1975
  clonogenic survival (surviving fraction): 0.77 ± 0.17
H3255
  clonogenic survival (surviving fraction): 1.0 ± 0.07
HeLa
  clonogenic survival (surviving fraction): 0.92 ± 0.08
Het1A
  clonogenic survival (surviving fraction): 0.91 ± 0.11
MRC5
  clonogenic survival (surviving fraction): 1.04 ± 0.05
CHO
  clonogenic survival (surviving fraction): 1.12 ± 0.14
HSP90
  binding of peptide with HSP90 versus peptide concentration: minimal interaction
EGFR-HSP90 interaction
  EGFR-HSP90 interaction: no effect
UMSCC1 xenografts [1]; UMSCC1 xenografts, single dose
  median tumor doubling time: 5.5 days
EGFR
  HSP90 levels in tumor or adjacent skin tissue (immunostaining): not affected

## DEAYVMASVDNPHVCRLLGIC [Peptide 5]
UMSCC1 cells; clonogenic survival of UMSCC1 cells, synthetic peptides delivered using Chariot
  Survival Fraction: 1 ± 0.14

## NHVPSDVC [Peptide 8]
C57BL/6 mice
  complete blood counts and liver cytosolic enzymes (AST, ALT): not significantly different from controls
  histological alterations in evaluated organs: no histological alterations

## SVDNPHVC [Peptide 2]
C57BL/6 mice
  complete blood counts and liver cytosolic enzymes (AST, ALT): not significantly different from controls
  histological alterations in evaluated organs: no histological alterations
